Patent US20230339952A1, “MACROCYCLIC HETEROCYCLES AND USES THEREOF” (Kumquat Biosciences Inc., priority 2022, published 2023)
pIC50: −log10 of the molar value. Like-named read-outs stand apart in the source and are kept apart here.

Legend:
SOS1 = SOS1 (Homo sapiens (Human), UniProt Q07889); test: Ras-SOS interaction assay (HTRF), K-Ras G13D utilized; format: binding
[1] = system: NCI-H1975 (ATCC CRL-5908) cell line comprising an EGFR T790M L858R double mutation; test: EGFR-SOS cellular inhibition assay (CellTiter-Glo cell proliferation); format: cell-based; conditions: Homo sapiens
Description: A CellTiter-Glo (CTG) luminescent based assay (Promega) is used to assess growth of the cells, as a measurement of the ability of the compounds herein to inhibit EGFR signaling in the cells. […] The day after plating, cells are treated with a dilution series (e.g., a 9 point 3-fold dilution series) of the compounds herein (e.g., approximately 125 μL final volume per well).

[2] = system: MIA PaCa-2 cells (K-Ras G12C); test: Ras-SOS cellular growth inhibition assay (CellTiter-Glo); conditions: Homo sapiens, MIA PaCa-2, 120 h, read-out: IC50 in inhibiting MIA PaCa-2 cell growth
Description: A CellTiter-Glo (CTG) luminescent based assay (Promega) is used to assess growth of the cells, as a measurement of the ability of the compounds herein to inhibit Ras signaling in the cells. […] The day after plating, cells are treated with a dilution series (e.g., a 9 point 3-fold dilution series) of the compounds herein (e.g., approximately 125 μL final volume per well). Cell viability can be monitored (e.g., approximately 5 days later) according to the manufacturer's recommended instructions, where the CellTiter-Glo reagent is added (e.g., approximately 65 μL), vigorously mixed, covered, and placed on a plate shaker (e.g., approximately for 20 min) to ensure sufficient cell lysis prior to assessment of luminescent signal. The IC50 values are determined using the four-parameter fit. The resulting IC50 value is a measurement of the ability of the compounds herein to reduce cell growth of Ras-driven cells as representative tumor cells.

[3] = Mouse oral exposure (% F); format: in vivo; conditions: plasma, female CD-1 mice, 10 mg/kg oral vs 2 mg/kg IV, single dosing
Description: A pharmacokinetic profile for a test compound is assessed by single dosing in female CD-1 mice. […] One set of animals is dosed intravenous (IV) with test compound, 2 mg/kg in 20% HP-beta-CD or 20% Captisol, pH adjusted to −5-6 by citric acid at 10 mL/kg. Time of blood sampling is 5 minutes, 15 minutes, 30 minutes, 90 minutes, 360 minutes, and 24 hours following IV dosing. […] Oral dosing solution concentration is 1 mg/mL test compound and 10 mL/kg. Time of blood sampling is 15 minutes, 30 minutes, 90 minutes, 180 minutes, 360 minutes and 24 hours following oral (po) dosing. Blood samples (˜0.1 mL/sample) are collected via submandibular facial vein and placed in tubes containing EDTA-K2 and stored on ice until centrifuged. The blood samples are centrifuged at approximately 6800 g for 6 minutes at 2-8° C. and the resulting plasma is separated and stored frozen at approximately −80° C. Plasma samples are analyzed using an Agilent Technologies 6430 Triple Quad LC/MS system, following the manufacturer instructions. All the analytes are detected with positive-mode electrospray ionization (ES+). […] Based on the time course sampling, an area under the curve is calculated for the oral dose group and the intravenous dose group. Percentage mouse bioavailability is calculated based on equation 6. […]

[4] = K-Ras G13D, read-out: SOS1 IC50
[5] = K-Ras G13D, read-out: IC50 value against SOS1
[6] = 120 h, NCI-H1975 cell proliferation, approximately 5 days, read-out: H1975 IC50
[7] = NCI-H1975, EGFR T790M L858R double mutation, read-out: IC50 in inhibiting growth of NCI-H1975 cell line
[8] = comparative values (Table 3), read-out: SOS1 IC50

Chain of SOS1 (Q07889 564-1049): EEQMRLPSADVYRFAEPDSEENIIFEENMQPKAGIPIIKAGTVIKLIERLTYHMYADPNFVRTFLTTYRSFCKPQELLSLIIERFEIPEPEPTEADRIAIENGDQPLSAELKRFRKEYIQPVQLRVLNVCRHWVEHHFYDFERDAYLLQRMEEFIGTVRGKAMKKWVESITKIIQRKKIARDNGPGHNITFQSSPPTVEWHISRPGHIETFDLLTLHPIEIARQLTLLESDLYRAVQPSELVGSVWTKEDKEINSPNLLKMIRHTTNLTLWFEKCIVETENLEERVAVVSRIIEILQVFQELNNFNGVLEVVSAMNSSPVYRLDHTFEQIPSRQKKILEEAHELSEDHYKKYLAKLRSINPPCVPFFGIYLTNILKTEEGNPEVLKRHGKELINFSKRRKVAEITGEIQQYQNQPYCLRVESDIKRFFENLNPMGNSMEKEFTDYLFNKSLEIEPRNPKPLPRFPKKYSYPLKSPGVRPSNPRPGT

Compound	pIC50 (SOS1; [4])	pIC50 (SOS1; [5])	pIC50 [1, 6]	pIC50 [1, 7]	pIC50 [2]	also measured
Cc1nc2c3cc(C4CCS(=O)(=O)CC4)c(=O)n(c3n1)CCCCC=CCN1CCC(CC1)C(F)(F)c1cccc(c1)[C@@H](C)N2	–	–	–	–	–	ring closure, yield of all isomers (from C=CCCCCn1c(=O)c(C2CCS(=O)(=O)CC2)cc2c(N[C@H](C)c3cccc(C(F)(F)C4CCN(CC=C)CC4)c3)nc(C)nc21, rcm bond, Grubbs II, DCM, 4.48 mM, 25.0 °C, 16.0 h): 64.2%
C[C@H]1Nc2ncnc3c2cc(C2(C#N)CC2)c(=O)n3CCCCCC=CCN2CCC(CC2)C(F)(F)c2cccc1c2	–	–	–	–	–	ring closure, yield of all isomers (from C=CCCCCCn1c(=O)c(C2(C#N)CC2)cc2c(N[C@H](C)c3cccc(C(F)(F)C4CCN(CC=C)CC4)c3)ncnc21, rcm bond, Grubbs II catalyst, DCM, 1.41 mM, 40.0 °C): 18.5%
Cc1nc2c3cc(C4(C#N)CC4)c(=O)n(c3n1)CCCCCCCCC(C)(O)C(F)(F)c1cccc(c1)[C@@H](C)N2 (stereo partly drawn) [Compound 9, 1-((3R)-5,5-difluoro-6-hydroxy-1^2,3,6-trimethyl-1^7-oxo-1^7,1^8-dihydro-2-aza-1(4,8)-pyrido[2,3-d]pyrimidina-4(1,3)-benzenacyclotetradecaphane-1^6-yl)cyclopropane-1-carbonitrile]	5.30 to 7.00	–	> 6.00	–	> 6.00	–
C[C@H]1Nc2nc(=O)n(c3c2cc(C2(C#N)CC2)c(=O)n3C)CC/C=C\CN2CCC(CC2)C(F)(F)c2cccc1c2 [Compound 6, 1-((6^3E,4R,9Z)-2,2-difluoro-6^8,4-dimethyl-6^2,6^7-dioxo-6^1,6^2,6^7,6^8-tetrahydro-5-aza-6(4,1)-pyrido[2,3-d]pyrimidina-1(4,1)-piperidina-3(1,3)-benzenacycloundecaphan-9-en-6^6-yl)cyclopropane-1-carbonitrile]	> 7.00	–	> 6.00	> 6.30	> 6.00	–

Second part, led by results:

pIC50 (SOS1; [4])	pIC50 (SOS1; [5])	pIC50 [1, 6]	pIC50 [1, 7]	pIC50 [2]	Compound	also measured
5.30 to 7.00	–	–	–	–	COc1cc2nc(C)nc3c2cc1OCCOCCOCCOCCOCCNCc1ccccc1C1=CC=C(S1)[C@@H](C)N3 [Compound 56, (R)-5^7-methoxy-5^2,3-dimethyl-6,9,12,15,18-pentaoxa-4,21-diaza-5(4,6)-quinazolina-2(2,5)-thiophena-1(1,2)-benzenacyclodocosaphane]	ring closure, yield of all isomers (from COc1cc2nc(C)nc(N[C@H](C)c3ccc(-c4ccccc4C=O)s3)c2cc1OCCOCCOCCOCCOCCN, amine bond, NaBH3CN, DCM, 28.4 mM, 25.0 °C, 16.0 h, 2 steps): 59.3%
> 7.00	> 7.30	> 6.00	> 6.30	> 6.00	C[C@H]1Nc2ncnc3c2cc(C2(C#N)CC2)c(=O)n3CCCCCCCN2CCC(CC2)C(F)(F)c2cccc1c2 [Compound 61, 1-((4R)-2,2-difluoro-4-methyl-6^7-oxo-6^7,6^8-dihydro-5-aza-6(4,8)-pyrido[2,3-d]pyrimidina-1(4,1)-piperidina-3(1,3)-benzenacyclotridecaphane-6^6-yl)cyclopropane-1-carbonitrile]	–
> 7.00	> 7.30	> 6.00	> 6.30	–	C[C@H]1Nc2ncnc3c2cc(C2CCS(=O)(=O)CC2)c(=O)n3CCCOCCCCN2CC(C2)CC(F)(F)c2cccc1c2 [Compound 176, (3R)-1^6-(1,1-dioxidotetrahydro-2H-thiopyran-4-yl)-5,5-difluoro-3-methyl-1^7,1^8-dihydro-12-oxa-2-aza-1(4,8)-pyrido[2,3-d]pyrimidina-7(3,1)-azetidina-4(1,3)-benzenacyclopentadecaphan-1^7-one]	pIC50 (SOS1; [8]): 8.15; bioavailability [3]: ≥ 4%
> 7.00	–	> 6.00	–	–	C[C@H]1Nc2ncnc3c2cc(C2(C#N)CCS(=O)(=O)CC2)c(=O)n3CCCCCCCN2CCC(CC2)C(F)(F)c2cccc1c2F [Compound 112, 4-((4R)-3^2,2,2-trifluoro-4-methyl-6^7-oxo-6^7,6^8-dihydro-5-aza-6(4,8)-pyrido[2,3-d]pyrimidina-1(4,1)-piperidina-3(1,3)-benzenacyclotridecaphane-6^6-yl)tetrahydro-2H-thiopyran-4-carbonitrile 1,1-dioxide]	ring closure, yield of all isomers (from C[C@@H](Nc1ncnc2c1cc(C1(C#N)CCS(=O)(=O)CC1)c(=O)n2CCCCCCC=O)c1cccc(C(F)(F)C2CCNCC2)c1F, amine bond, NaBH3CN, MeOH, 0.73 mM, 25.0 °C, 16.5 h): 28.2%
> 7.00	> 7.30	> 6.00	> 6.30	> 6.00	Cc1nc2c3cc(C4CCS(=O)(=O)CC4)c(=O)n(c3n1)CCCCC/C=C\CC(C)(O)C(F)(F)c1cccc(c1)[C@@H](C)N2 (stereo partly drawn) [Compound 101, (3R,Z)-1^6-(1,1-dioxidotetrahydro-2H-thiopyran-4-yl)-5,5-difluoro-6-hydroxy-1^2,3,6-trimethyl-1^7,1^8-dihydro-2-aza-1(4,8)-pyrido[2,3-d]pyrimidina-4(1,3)-benzenacyclotetradecaphan-8-en-1^7-one]	–
> 7.00	> 7.30	> 6.00	> 6.30	> 6.00	Cc1nc2c3cc(C4CCN(C(C)C)CC4)c(=O)n(c3n1)CCCC/C=C\CN1CCC(CC1)C(F)(F)c1cccc(c1)[C@@H](C)N2 [Compound 175, (4R,Z)-2,2-difluoro-6^6-(1-isopropylpiperidin-4-yl)-6^2,4-dimethyl-6^7,6^8-dihydro-5-aza-6(4,8)-pyrido[2,3-d]pyrimidina-1(4,1)-piperidina-3(1,3)-benzenacyclotridecaphan-11-en-6^7-one]	pIC50 (SOS1; [8]): 8.10; bioavailability [3]: ≥ 4%
